Reference: ChEMBL document CHEMBL5241104, “Reactive metabolites of the anticonvulsant drugs and approaches to minimize the adverse drug reaction” (Eur J Med Chem, 2021)

How the values were obtained:
Mus musculus [1] = assay: Anticonvulsant activity in CD-1 mouse assessed as protection against 6-Hz Psychomotor induced seizure at ip administration; format: functional
[2] = Protective index, ratio of TD50 for toxicity in Sc-PTZ induced Swiss albino mouse seizure model assessed as median neurotoxicity dose at po administration by rotorod test to ED50 for anticonvulsant activity in Swiss albino mouse assessed as protection against Sc-PTZ induced seizure at po administration; format: organism-based; settings: in vivo, read-out: Ratio TD50/ED50
Rattus norvegicus [3] = assay: Anticonvulsant activity in Wistar rat assessed as protection against maximal electroshock induced seizure at po administration for 60 mins; format: functional; settings: 1 h
Rattus norvegicus [4] = assay: Anticonvulsant activity against maximal electroshock induced seizure in Wistar rat assessed as reduction of time spent in extension phase at 50 mg/kg,po administration; format: functional
Rattus norvegicus [5] = assay: Anticonvulsant activity against maximal electroshock induced seizure in Wistar albino rat assessed as reduction of time spent in stupor phase at 10 mg/kg,ip administrated for 30 mins by electroconvulsive therapy; format: functional; design: scale not given: the % may be the effect or the level left; settings: 0.5 h
Rattus norvegicus [6] = assay: Anticonvulsant activity against maximal electroshock induced seizure in Wistar albino rat assessed as reduction of time spent in clonus phase at 10 mg/kg,ip administrated for 30 mins by electroconvulsive therapy; format: functional; design: scale not given: the % may be the effect or the level left; settings: 0.5 h
Rattus norvegicus [7] = assay: Anticonvulsant activity against maximal electroshock induced seizure in Wistar albino rat assessed as reduction of time spent in extension phase at 10 mg/kg,ip administrated for 30 mins by electroconvulsive therapy; format: functional; design: scale not given: the % may be the effect or the level left; settings: 0.5 h
Rattus norvegicus [8] = assay: Anticonvulsant activity against maximal electroshock induced seizure in Wistar albino rat assessed as reduction of time spent in flexion phase at 10 mg/kg,ip administrated for 30 mins by electroconvulsive therapy; format: functional; design: scale not given: the % may be the effect or the level left; settings: 0.5 h
Mus musculus [9] = assay: Anticonvulsant activity in mouse assessed as protection against maximal electroshock induced seizure at ip administration for 5 mins; format: functional
[10] = Toxicity in Swiss albino mouse assessed as median toxicity dose at ip administration; format: organism-based; settings: in vivo
Mus musculus [11] = assay: Anticonvulsant activity in Swiss albino mouse assessed as protection against Sc-PTZ induced seizure at po administration; format: functional
[12] = Protective index, ratio of TD50 for toxicity in Albino mouse assessed as median neurotoxicity dose at ip administration by rotorod test to ED50 for anticonvulsant activity in Albino mouse assessed as protection against Sc-PTZ induced seizure at ip administration; format: organism-based; settings: in vivo, read-out: Ratio TD50/ED50
[13] = Protective index, ratio of TD50 for toxicity in Albino mouse assessed as median neurotoxicity dose at ip administration by rotorod test to ED50 for anticonvulsant activity in Albino mouse assessed as protection against maximal electroshock induced seizure at ip administration; format: organism-based; settings: in vivo, read-out: Ratio TD50/ED50
Mus musculus [14] = assay: Anticonvulsant activity in Albino mouse brain assessed as increase in GABA level at 30 to 300 mg/kg,ip by spectrophotometric method; format: functional; settings: dose 30-300 mg/kg
Mus musculus [15] = assay: Anticonvulsant activity in Albino mouse assessed as protection against Sc-PTZ induced seizure at ip administration; format: functional
Mus musculus [16] = assay: Anticonvulsant activity in Albino mouse assessed as protection against maximal electroshock induced seizure at ip administration; format: functional
Mus musculus [17] = assay: Anticonvulsant activity against bicuculline induced Swiss mouse seizure model assessed as inhibition of clonic seizures at 50 mg/kg,ip administration for 30 mins; format: functional; settings: 0.5 h
[18] = Toxicity in 3-MP induced Swiss mouse seizure model assessed as death at 50 mg/kg,ip administration for 30 mins; format: organism-based; settings: in vivo, read-out: Activity
Mus musculus [19] = assay: Anticonvulsant activity against bicuculline induced Swiss mouse seizure model assessed as inhibition of tonic seizures at 50 mg/kg,ip administration for 30 mins; format: functional; settings: 0.5 h
Mus musculus [20] = assay: Anticonvulsant activity in Swiss mouse assessed as protection against Sc-PTZ induced seizure at ip administration; format: functional
Mus musculus [21] = assay: Anticonvulsant activity against 3-MP induced Swiss mouse seizure model assessed as inhibition of clonic seizures at 50 mg/kg,ip administration for 30 mins; format: functional; settings: 0.5 h
[22] = Toxicity in bicuculline induced Swiss mouse seizure model assessed as death at 50 mg/kg,ip administration for 30 mins; format: organism-based; settings: in vivo, read-out: Activity
Mus musculus [23] = assay: Anticonvulsant activity against 3-MP induced Swiss mouse seizure model assessed as inhibition of tonic seizures at 50 mg/kg,ip administration for 30 mins; format: functional; settings: 0.5 h
Mus musculus [24] = assay: Anticonvulsant activity in Albino mouse assessed as protection against maximal electroshock induced seizure at ip administration for 30 mins; format: functional; settings: 0.5 h
Mus musculus [25] = assay: Anticonvulsant activity in Swiss albino mouse assessed as inhibition of maximal electroshock induced seizure at ip administration; format: functional
[26] = Toxicity in Swiss CD-1 mouse assessed as mortality at 100 mg/kg,ip; format: organism-based; settings: in vivo
[27] = Toxicity in Swiss albino mouse assessed as lethality at 30 mg/kg,ip; format: organism-based; settings: in vivo, read-out: Activity
Mus musculus [28] = assay: Anticonvulsant activity in mouse assessed as protection against maximal electroshock induced seizure at po administration; format: functional
Rattus norvegicus [29] = assay: Anticonvulsant activity in rat assessed as protection against maximal electroshock induced seizure at po administration; format: functional
[30] = Protective index, ratio of TD50 for toxicity in rat assessed as median toxicity dose at po administration by rotorod test to ED50 for anticonvulsant activity in rat assessed as protection against maximal electroshock induced seizure at po administration; format: organism-based; settings: in vivo, read-out: Ratio TD50/ED50
Rattus norvegicus [31] = assay: Anticonvulsant activity in rat assessed as protection against Sc-metrazol induced seizure at po administration; format: functional

CCCC(CCC)C(=O)O [VALPROIC ACID]
ED50 (Mus musculus [1]): 131 mg/kg

C=C(C)CC(CCC)C(=O)O (racemic)
selectivity ratio [2]: 2.05

O=[N+]([O-])c1ccc(C2CC(c3ccc(Cl)cc3)=Nc3ccccc3N2)cc1 (stereo not given)
Activity (Rattus norvegicus [3]): 56%
Time (Rattus norvegicus [4]): 7.25 s

CCN(CC)CN1C(=O)/C(=N\c2nnc(-c3cccc(Cl)c3Cl)c(/N=C3\C(=O)N(CN(CC)CC)c4ccc(Cl)cc43)n2)c2cc(Cl)ccc21
Activity (Rattus norvegicus [5]): 30.21%
Activity (Rattus norvegicus [6]): 39.4%
Activity (Rattus norvegicus [7]): 47.87%
Activity (Rattus norvegicus [8]): 29.31%

CN1C(=O)CN=C(c2ccccc2)c2cc(Cl)ccc21 [DIAZEPAM]
Activity (Mus musculus [9]): 87.5%

CCCC(CCC)C(=O)N/N=C/c1ccncc1
TD50 [10]: 346 mg/kg

O=C1/C(=N\c2nnc(-c3cccc(Cl)c3Cl)c(/N=C3\C(=O)N(CN4CCOCC4)c4ccc(Cl)cc43)n2)c2cc(Cl)ccc2N1CN1CCOCC1
Activity (Rattus norvegicus [5]): 34.16%
Activity (Rattus norvegicus [6]): 40.55%
Activity (Rattus norvegicus [7]): 48.95%
Activity (Rattus norvegicus [8]): 30.39%

O=C(O)CCCCCn1c(-c2ccccc2)nc(-c2ccccc2)c1-c1ccccc1
Activity (Mus musculus [11]): 100%

CN(C)c1ccc(/C=N/Nc2nnc(-c3ccccc3)nc2Cc2cccc(Cl)c2)cc1
selectivity ratio [12]: 4.73
selectivity ratio [13]: 8.01
Activity (Mus musculus [14]): 39.7 mg
ED50 (Mus musculus [15]): 92 mg/kg
ED50 (Mus musculus [16]): 54.3 mg/kg

NC(=O)N1c2ccccc2C=Cc2ccccc21 [CARBAMAZEPINE]
inhibition in vivo at 50 mg/kg (Mus musculus [17]): 100%
mortality at 0.5 h [18]: 90%
inhibition in vivo at 50 mg/kg (Mus musculus [19]): 0%
ED50 (Mus musculus [20]): > 100 mg/kg
inhibition in vivo at 50 mg/kg (Mus musculus [21]): 80%
mortality at 0.5 h [22]: 40%
inhibition in vivo at 50 mg/kg (Mus musculus [23]): 0%

O=C1Nc2ccc(Cl)cc2C(c2ccccc2)=NC1/N=N/c1ccc(Cl)cc1 (stereo not given)
Activity (Mus musculus [24]): 100%

CCC(=O)CCCCCN1C(=O)NC2(C1=O)c1ccccc1-c1ccccc12
Activity (Mus musculus [11]): 100%

COc1ccc(C2CC(c3ccc(Cl)cc3)=Nc3ccccc3N2)cc1 (stereo not given)
Activity (Rattus norvegicus [3]): 52%
Time (Rattus norvegicus [4]): 8.5 s

CCOc1cc(/C=C2/N=C(c3ccccc3)c3cc([N+](=O)[O-])ccc3NC2=O)ccc1O
inhibition (INH) (Mus musculus [25]): 75%

O=C1CCCN1CC(O)CN1CCN(c2ccccc2O)CC1 (stereo not given)
mortality [26]: 14.2%

O=C(NC1CCCCC1)C(c1ccc(Cl)cc1)N1Cc2cnnn2-c2ccccc2C1=O (stereo not given)
Activity (Mus musculus [9]): 100%

O=C1Nc2ccccc2C12Nc1ccccc1-c1nc(=O)c(-c3ccccc3)nn12 (stereo not given)
mortality [27]: 30%

COc1cc(/C=C2/N=C(c3ccccc3)c3cc([N+](=O)[O-])ccc3NC2=O)ccc1O
inhibition (INH) (Mus musculus [25]): 71%

CCCC(CCC)C(=O)[O-].[Na+] [VALPROATE SODIUM]
Activity (Mus musculus [11]): 83%
ED50 (Mus musculus [20]): 149 mg/kg

CC1(C)C(C(=O)NC(N)=O)C1(C)C [2,2,3,3-TETRAMETHYLCYCLOPROPANECARBONYLUREA]
ED50 (Mus musculus [28]): 90 mg/kg
ED50 (Rattus norvegicus [29]): 29 mg/kg
selectivity ratio [30]: 18.5
ED50 (Rattus norvegicus [31]): 92 mg/kg

O=C1Nc2ccc(Cl)cc2C(c2ccccc2)=NC1/N=N/c1ccc(F)cc1 (stereo not given)
Activity (Mus musculus [24]): 100%

CCCC(CCC)C(=O)N/N=C/c1cc(OC)ccc1OC
TD50 [10]: 457 mg/kg

CCC1(C)CC(=O)NC1=O (stereo not given) [ETHOSUXIMIDE]
ED50 (Mus musculus [1]): 222 mg/kg
